Measurements as given in patent publication US11091478B2 (Fochon Pharmaceuticals, Ltd., priority 2017, dated 2021).

Columns and labels:
DOHH2 cells = test: Cell proliferation assay (MTS), DOHH2 cells, 120 h; type: cell-based; details: Homo sapiens, DOHH-2, 120 h
How it was run: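 Cells in RPMI-1640 with 10% FBS were seeded at 5000/well, left overnight at 37° C., 5% CO2, then exposed to compound at 10000 down to 1.5 nM (nine concentrations) for 72 h (RS4;11) or 120 h (DOHH2). Viability was read by MTS, 2 h, absorbance at 490/650 nm; IC50 calculated.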

RS4;11 cells = test: Cell proliferation assay (MTS), RS4;11 cells, 72 h; type: cell-based; details: Homo sapiens, RS4-11, 72 h
Excerpt: Cell Proliferation Assays
MTS testing kit was purchased from Promega. The RPMI-1640, Fetal bovine serum and Penicillin-Streptomycin were purchased from Gibco. Dimethyl sulfoxide (DMSO) was purchased from Sigma.
To investigate whether a compound is able to inhibit the activity of BCL-2 in cells, a mechanism-based assay using DOHH2 (DSMZ No.® ACC 47) and RS4;11 (ATCC® CRL-1873™) cell was developed. In this assay, inhibition of Bcl-2 was detected by the inhibition of DOHH2 cells proliferation. DOHH2 cells were cultured in culture flasks to 40-80% confluence in RPMI-1640 plus 10% fetal bovine serum. Cells were collected and plated onto 96-well plates at desired cell density (5000 cells/well). Plates were incubated overnight at 37° C., with 5% CO2 to adhere. Compounds were added to the plates, and the final compound concentrations were 10000, 3333, 1111, […], 124, 41, 14, 4.6 and 1.5 nM. Plates plated with DOHH2 or RS4;11 cells were placed at 37° C., with 5% CO2 for 120 h (DOHH2) or 72 h (RS4;11) respectively. 20 μl MTS/100 μl medium mixture solution were added to each well and incubate the plates for exactly 2 hours. The reaction was stopped by adding 25 μl 10% SDS per well. Measure absorbance at 490 nm and 650 nm (reference wavelength). IC50 was calculated using GraphPad Prism 5.0.
Select compounds prepared as described above were assayed according to the biological procedures described herein.

IC50 (RS4;11 cells) | SMILES | IC50 (DOHH2 cells)
69 nM | CC1(C)CCC(CN2CCN(c3ccc(C(=O)NS(=O)(=O)c4cc5c(c([N+](=O)[O-])c4)N[C@@H](CO)C5)c(Oc4cnc5[nH]ccc5c4)c3)CC2)=C(c2ccc(Cl)cc2)C1 [Example 1-11, (R)-2-((1H-pyrrolo[2,3-b]pyridin-5-yl)oxy)-4-(4-((4′-chloro-5,5-dimethyl-3,4,5,6-tetra-hydro-[1,1′-biphenyl]-2-yl)methyl)piperazin-1-yl)-N-((2-(hydroxymethyl)-7-nitroindolin-5-yl)sulfonyl)benzamide] | 154 nM
58 nM | CN1CCN(CC[C@@H]2Cc3cc(S(=O)(=O)NC(=O)c4ccc(N5CCN(CC6=C(c7ccc(Cl)cc7)CC(C)(C)CC6)CC5)cc4Oc4cnc5[nH]ccc5c4)cc([N+](=O)[O-])c3N2)CC1 [Example 1-12, (S)-2-((1H-pyrrolo[2,3-b]pyridin-5-yl)oxy)-4-(4-((4′-chloro-5,5-dimethyl-3,4,5,6-tetra-hydro-[1,1′-biphenyl]-2-yl)methyl)piperazin-1-yl)-N-((2-(2-(4-methylpiperazin-1-yl)eth-yl)-7-nitroindolin-5-yl)sulfonyl)benzamide] | 299 nM
74 nM | CC1(C)CCC(CN2CCN(c3ccc(C(=O)NS(=O)(=O)c4cc5c(c([N+](=O)[O-])c4)N[C@H](CCN4CCC(C)(O)CC4)C5)c(Oc4cnc5[nH]ccc5c4)c3)CC2)=C(c2ccc(Cl)cc2)C1 [Example 1-13, (S)-2-((1H-pyrrolo[2,3-b]pyridin-5-yl)oxy)-4-(4-((4′-chloro-5,5-dimethyl-3,4,5,6-tetra-hydro-[1,1′-biphenyl]-2-yl)methyl)piperazin-1-yl)-N-((2-(2-(4-hydroxy-4-methylpiper-idin-1-yl)ethyl)-7-nitroindolin-5-yl)sulfonyl) benzamide] | 91 nM
52 nM | CN(C)CC[C@@H]1Cc2cc(S(=O)(=O)NC(=O)c3ccc(N4CCN(CC5=C(c6ccc(Cl)cc6)CC(C)(C)CC5)CC4)cc3Oc3cnc4[nH]ccc4c3)cc([N+](=O)[O-])c2N1 [Example 1-14, (S)-2-((1H-pyrrolo[2,3-b]pyridin-5-yl)oxy)-4-(4-((4′-chloro-5,5-dimethyl-3,4,5,6-tetra-hydro-[1,1′-biphenyl]-2-yl)methyl)piperazin-1-yl)-N-((2-(2-(dimethylamino)ethyl)-7-nitroindolin-5-yl)sulfonyl)benzamide] | 57 nM
15 nM | CN1CCN(CC[C@H]2Cc3cc(S(=O)(=O)NC(=O)c4ccc(N5CCN(CC6=C(c7ccc(Cl)cc7)CC(C)(C)CC6)CC5)cc4Oc4cnc5[nH]ccc5c4)cc([N+](=O)[O-])c3N2)CC1 [Example 1-15, (R)-2-((1H-pyrrolo[2,3-b]pyridin-5-yl)oxy)-4-(4-((4′-chloro-5,5-dimethyl-3,4,5,6-tetrahydro-[1,1′-biphenyl]-2-yl)methyl)piper-azin-1-yl)-N-((2-(2-(4-methylpiperazin-1-yl)ethyl)-7-nitroindolin-5-yl)sulfonyl) benzamide] | 50 nM
16 nM | CC1(C)CCC(CN2CCN(c3ccc(C(=O)NS(=O)(=O)c4cc5c(c([N+](=O)[O-])c4)N[C@@H](CCN4CCOCC4)C5)c(Oc4cnc5[nH]ccc5c4)c3)CC2)=C(c2ccc(Cl)cc2)C1 [Example 1-16, (R)-2-((1H-pyrrolo[2,3-b]pyridin-5-yl)oxy)-4-(4-((4′-chloro-5,5-dimethyl-3,4,5,6-tetra-hydro-[1,1′-biphenyl]-2-yl)methyl)piperazin-1-yl)-N-((2-(2-morpholinoethyl)-7-nitro-indolin-5-yl)sulfonyl)benzamide] | 73 nM
56 nM | CC1(C)CCC(CN2CCN(c3ccc(C(=O)NS(=O)(=O)c4cc5c(c([N+](=O)[O-])c4)N[C@@H](CCN4CCC(C)(O)CC4)C5)c(Oc4cnc5[nH]ccc5c4)c3)CC2)=C(c2ccc(Cl)cc2)C1 [Example 1-17, (R)-2-((1H-pyrrolo[2,3-b]pyridin-5-yl)oxy)-4-(4-((4′-chloro-5,5-dimethyl-3,4,5,6-tetra-hydro-[1,1′-biphenyl]-2-yl)methyl)piperazin-1-yl)-N-((2-(2-(4-hydroxy-4-methylpiper-idin-1-yl)ethyl)-7-nitroindolin-5-yl)sulfonyl) benzamide] | 61 nM
18 nM | CN(C)CC[C@H]1Cc2cc(S(=O)(=O)NC(=O)c3ccc(N4CCN(CC5=C(c6ccc(Cl)cc6)CC(C)(C)CC5)CC4)cc3Oc3cnc4[nH]ccc4c3)cc([N+](=O)[O-])c2N1 [Example 1-18, (R)-2-((1H-pyrrolo[2,3-b]pyridin-5-yl)oxy)-4-(4-((4′-chloro-5,5-dimethyl-3,4,5,6-tetra-hydro-[1,1′-biphenyl]-2-yl)methyl)piperazin-1-yl)-N-((2-(2-(dimethylamino)ethyl)-7-nitroindolin-5-yl)sulfonyl)benzamide] | 5 nM
93 nM | CC1(C)CCC(CN2CCN(c3ccc(C(=O)NS(=O)(=O)c4cc5c(c([N+](=O)[O-])c4)N[C@@H](CCO)C5)c(Oc4cnc5[nH]ccc5c4)c3)CC2)=C(c2ccc(Cl)cc2)C1 [Example 1-19, (R)-2-((1H-pyrrolo[2,3-b]pyridin-5-yl)oxy)-4-(4-((4′-chloro-5,5-dimethyl-3,4,5,6-tetra-hydro-[1,1′-biphenyl]-2-yl)methyl)piperazin-1-yl)-N-((2-(2-hydroxyethyl)-7-nitro-indolin-5-yl)sulfonyl)benzamide] | 96 nM
1 nM | CC1(C)CCC(CN2CCN(c3ccc(C(=O)NS(=O)(=O)c4cc([N+](=O)[O-])c5[nH]c(CN6CCOCC6)cc5c4)c(Oc4cnc5[nH]ccc5c4)c3)CC2)=C(c2ccc(Cl)cc2)C1 [Example 1-21, 2-((1H-pyrrolo[2,3-b]pyridin-5-yl)oxy)-4-(4-((4′-chloro-5,5-dimethyl-3,4,5,6-tetra-hydro-[1,1′-biphenyl]-2-yl)methyl)piperazin-1-yl)-N-((2-(morpholino-methyl)-7-nitro-1H-indol-5-yl)sulfonyl)benzamide] | 12 nM
47 nM | COC(=O)C[C@@H]1Cc2cc(S(=O)(=O)NC(=O)c3ccc(N4CCN(CC5=C(c6ccc(Cl)cc6)CC(C)(C)CC5)CC4)cc3Oc3cnc4[nH]ccc4c3)cc([N+](=O)[O-])c2N1 [Example 1-22, methyl (S)-2-(5-(N-(2-((1H-pyrrolo[2,3-b]pyridin-5-yl)oxy)-4-(4-((4′-chloro-5,5-dimethyl-3,4,5,6-tetrahydro-[1,1′-biphenyl]-2-yl)methyl)piperazin-1-yl)benzoyl)sulfamoyl)-7-nitro-indolin-2-yl)acetate] | 175 nM
20 nM | CN(C)C(=O)C[C@@H]1Cc2cc(S(=O)(=O)NC(=O)c3ccc(N4CCN(CC5=C(c6ccc(Cl)cc6)CC(C)(C)CC5)CC4)cc3Oc3cnc4[nH]ccc4c3)cc([N+](=O)[O-])c2N1 [Example 1-23, (S)-2-((1H-pyrrolo[2,3-b]pyridin-5-yl)oxy)-4-(4-((4′-chloro-5,5-dimethyl-3,4,5,6-tetra-hydro-[1,1′-biphenyl]-2-yl)methyl)piperazin-1-yl)-N-((2-(2-(dimethylamino)-2-oxoeth-yl)-7-nitroindolin-5-yl)sulfonyl)benzamide] | 57 nM
73 nM | CC1(C)CCC(CN2CCN(c3ccc(C(=O)NS(=O)(=O)c4cc5c(c([N+](=O)[O-])c4)N[C@H](CC(=O)N4CCOCC4)C5)c(Oc4cnc5[nH]ccc5c4)c3)CC2)=C(c2ccc(Cl)cc2)C1 [Example 1-24, (S)-2-((1H-pyrrolo[2,3-b]pyridin-5-yl)oxy)-4-(4-((4′-chloro-5,5-dimethyl-3,4,5,6-tetra-hydro-[1,1′-biphenyl]-2-yl)methyl)piperazin-1-yl)-N-((2-(2-morpholino-2-oxoethyl)-7-nitroindolin-5-yl)sulfonyl)benzamide] | 41 nM
6 nM | CN1CCN(C(=O)C[C@H]2Cc3cc(S(=O)(=O)NC(=O)c4ccc(N5CCN(CC6=C(c7ccc(Cl)cc7)CC(C)(C)CC6)CC5)cc4Oc4cnc5[nH]ccc5c4)cc([N+](=O)[O-])c3N2)CC1 [Example 1-25] | 6 nM
12 nM | CC1(C)CCC(CN2CCN(c3ccc(C(=O)NS(=O)(=O)c4cc5c(c([N+](=O)[O-])c4)N[C@@H](CC(=O)N4CCOCC4)C5)c(Oc4cnc5[nH]ccc5c4)c3)CC2)=C(c2ccc(Cl)cc2)C1 [Example 1-26, (R)-2-((1H-pyrrolo[2,3-b]pyridin-5-yl)oxy)-4-(4-((4′-chloro-5,5-dimethyl-3,4,5,6-tetra-hydro-[1,1′-biphenyl]-2-yl)methyl)piperazin-1-yl)-N-((2-(2-morpholino-2-oxoethyl)-7-nitroindolin-5-yl)sulfonyl)benzamide] | 102 nM
